The values that follow come from ChEMBL document CHEMBL3351842, “Synthesis and biological characterization of new aryloxyindole-4,9-diones as potent trypanosomicidal agents” (Bioorg Med Chem Lett, 2014).

In series [1] the test system is Trypanosoma cruzi. Description: Trypanocidal activity against Trypanosoma cruzi Y epimastigotes […] assessed as growth inhibition of parasite measured on day 5. It is filed as functional, organism-based. To be noted: 120 h.
In series [2] the test system is Trypanosoma cruzi. Description: Trypanocidal activity against Trypanosoma cruzi Y epimastigotes […] assessed as growth inhibition of parasite at 10 uM measured on day 5. It is filed as functional. To be noted: 120 h, read-out: GI.
Series [3] is described as follows: Selectivity index, ratio of IC50 for mouse J774A cells to IC50 for Trypanosoma cruzi Y epimastigotes. To be noted: J774A cells versus Trypanosoma cruzi Y epimastigotes, read-out: Ratio IC50. It is filed as toxicity, cell-based.
A further series has as its system J774. The experiment in a line: Cytotoxicity against mouse J774 cells assessed as cell viability after 48 hrs by MTT assay. To be noted: J774, 48 h. It is filed as cell-based. For orientation: Tetrazolium dyes change colour on reduction, which living cells bring about.
Series [4] concerns Trypanosoma cruzi. The experiment in a line: microbe, parasite or virus in culture. To be noted: Y, J774, in Mus musculus, 120 h, read-out: GI.
Description: Trypanocidal activity against Trypanosoma cruzi Y epimastigotes infected in mouse J774 cells assessed as growth inhibition of parasite at 5 uM measured on day 5

The term IC50 denotes the concentration needed to halve the response being measured.

`O=C1C=C(Oc2ccccc2)C(=O)c2ccccc21`: the figures for the IC50 with Trypanosoma cruzi [1] and with J774 were 50 nM and 12500 nM, respectively. In addition, the inhibition of growth at 10 µM in the series with Trypanosoma cruzi [2] came to 87.2%. Also, the selectivity ratio in series [3] worked out at 250.
With `CCOC(=O)c1cc2c(OC)cc(Br)c(OC)c2[nH]1`, in the series on Trypanosoma cruzi [2], the inhibition of growth at 10 µM is 26.9%.
Consider `CCOC(=O)c1cc2c(OC)cc(Br)c(OC)c2n1CC`, for which the inhibition of growth at 10 µM in the series on Trypanosoma cruzi [2] worked out at 2.9%.
As for `CCOC(=O)c1cc2c(n1CC)C(=O)C(Br)=CC2=O`, the IC50 with Trypanosoma cruzi [1] was 530 nM. The inhibition of growth at 10 µM in the series with Trypanosoma cruzi [2] is 97.1%.
As for `CCOC(=O)c1cc2c(n1CC)C(=O)C(Oc1ccccc1)=CC2=O`, the figures for the IC50 in the series on Trypanosoma cruzi [1] and in the series on J774 were 220 nM and 22000 nM, respectively. For the same compound, in the series on Trypanosoma cruzi [2], the inhibition of growth at 10 µM turned out to be 84.7%. Further, in series [3], the selectivity ratio worked out at 100.
On to `CCOC(=O)c1cc2c(n1CC)C(=O)C(Oc1ccc(C)cc1)=CC2=O`, for which the half-maximal inhibitory concentration (IC50) with Trypanosoma cruzi [1] is 20 nM. Moreover, the inhibition of growth at 10 µM in the series on Trypanosoma cruzi [2] was determined as 92.1%.
Turning to `CCOC(=O)c1cc2c(n1CC)C(=O)C(Oc1ccccc1C)=CC2=O`, the IC50 was found to be 140 nM in the series with Trypanosoma cruzi [1] and 12500 nM with J774. Besides, in the series on Trypanosoma cruzi [2], the inhibition of growth at 10 µM was 100%. For the same compound, the selectivity ratio in series [3] is 89.3.
For the compound `CCOC(=O)c1cc2c(n1CC)C(=O)C(Oc1ccc(OC)cc1)=CC2=O`, the figures for the half-inhibitory concentration (IC50) in the series on Trypanosoma cruzi [1] and with J774 were 20 nM and 12500 nM, respectively. Moreover, in the series on Trypanosoma cruzi [2], the inhibition of growth at 10 µM was determined as 90.5%. Moreover, in series [3], the selectivity ratio was 625.
In the case of `CCOC(=O)c1cc2c(n1CC)C(=O)C(Oc1ccc(Cl)cc1)=CC2=O`, the IC50 with Trypanosoma cruzi [1] stood at 130 nM. Also, the inhibition of growth at 10 µM with Trypanosoma cruzi [2] worked out at 94.6%.
As to `CC1CS(=O)(=O)CCN1/N=C/c1ccc([N+](=O)[O-])o1` (configuration not stated) [NIFURTIMOX], the inhibition of growth at 5 µM in the series with Trypanosoma cruzi [4] came to 49.9%. Also, in the series on Trypanosoma cruzi [1], the IC50 is 7000 nM. Moreover, the selectivity ratio in series [3] came to 40.
